From patent US20140357577A1, “HIV Membrane Fusion Inhibitors” (priority 2011, published 2014)
Starred links: 1 amine or outer side, 2 acyl side, 3 side chain; linkers in the order of their positions; H or OH if unused. *: point of attachment. Suc = O=C(CCC(=O)[*:2])[*:1]; Isovaleryl = CC(C)CC(=O)*; Pentanoyl = CCCCC(=O)*

Key:
[1] = tested on: HIV wild type virus strain IIIB; experiment: Standard Anti-Viral-Experiment (AVE), HIV-1 replication assay in MT4-LTR-EGFP cells, wild type IIIB; type: cell-based; details: 3 days, EGFP signal
Outline: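 MT4-LTR-EGFP cells infected with HIV-1 IIIB, HXB2D or HXB2D gp41 mutants V38A/Q40H alongside serial 4-fold compound dilutions, 3 days at 37° C. EGFP read by laser-scanning microscopy; EC50 by linear interpolation against log concentration. Mutant results given as fold change in EC50 versus wild-type HXB2D.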

HIV-IIIB + 50% HS = experiment: Standard AVE (50% Human Serum), HIV-1 replication assay in MT4-LTR-EGFP cells; type: cell-based; details: fold change vs EC50 in the assay without human serum
Text: The HIV-1 replication assay (with 50% human serum) measures virus replication as an induction of enhanced green fluorescent protein (EGFP) expression, in the presence of 50% human serum. The indicator MT4-LTR-EGFP cells contain an EGFP gene under the control of the HIV-1 LTR promoter sequence. Successful HIV-1 infection results in viral Tat protein expression and subsequent induction of EGFP expression. Compounds/peptides inhibiting HIV-1 infection are expected to reduce EGFP expression as compared to the untreated HIV-infected control. Compounds/peptides binding to human serum are expected to have a reduced activity for inhibiting the virus in the assay.
Serial 4-fold dilutions of test compounds/peptides were mixed with HIV-1 and MT4-LTR-EGFP cells and incubated at 37° C., in the presence of 50% human serum. After 3 days, the wells were examined for EGFP expression using an argon laser-scanning microscope. The effective compound/peptide concentration inhibiting 50% of the virus-induced EGFP signal (EC50) was determined by linear interpolation of the EGFP signal vs. logarithm of the compound concentration; T20, C34 and Sifuvirtide were added as reference compounds. Results were reported as a fold change in EC50, as compared with the acquired EC50 in the assay without human serum.

[2] = tested on: HIV mutant virus strain HXB2D with mutation Q40H in the gp41 gene; experiment: Standard AVE, HXB2D site directed mutant Q40H; type: cell-based, HIV-1; details: fold change vs wild type strain HXB2D
Text: • Standard Anti-Viral-Experiment “AVE” (wild type HIV strain IIIB+HIV strain HXB2D side directed mutants V38A and Q40H)
The HIV-1 replication assay measures virus replication (HIV wild type virus strain 111B or HXB2D, or a HIV mutant virus strain HXB2D with mutation V38A or Q40H in the gp41 gene) as an induction of enhanced green fluorescent protein (EGFP) expression. The indicator MT4-LTR-EGFP cells contain an EGFP gene under the control of the HIV-1 LTR promoter sequence. Successful HIV-1 infection results in viral Tat protein expression and subsequent induction of EGFP expression. Compounds/peptides inhibiting HIV-1 infection are expected to reduce EGFP expression as compared to the untreated HIV-infected control.
Serial 4-fold dilutions of test compounds/peptides were mixed with HIV-1 (IIIB, HXB2D, or a HXB2D mutant virus (V38A or Q40H)) and MT4-LTR-EGFP cells and incubated at 37° C. After 3 days, the wells were examined for EGFP expression using an argon laser-scanning microscope. The effective compound/peptide concentration inhibiting 50% of the virus-induced EGFP signal (EC50) was determined by linear interpolation of the EGFP signal vs. logarithm of the compound concentration; (T20, C34 and Sifuvirtide were added as reference compounds). For the V38A and Q40H mutant viruses, results were reported as a fold change in EC50, as compared with a drug-susceptible wild type strain HXB2D, which forms the backbone of the mutant virus. • Standard AVE (50% Human Serum)

Substance | EC50 [1] [nM] | HIV-IIIB + 50% HS (Fold change in EC50) (HIV-IIIB + 50% HS) | HIV-HXB2D Q40H mutant (fold change in EC50) [2]
Suc-ANYLALIEALIRAAQEQQEKNEAALR-NH2 (SMILES CC[C@H](C)[C@H](NC(=O)[C@H](CC(C)C)NC(=O)[C@H](C)NC(=O)[C@H](CCC(=O)O)NC(=O)[C@@H](NC(=O)[C@H](CC(C)C)NC(=O)[C@H](C)NC(=O)[C@H](CC(C)C)NC(=O)[C@H](Cc1ccc(O)cc1)NC(=O)[C@H](CC(N)=O)NC(=O)[C@H](C)NC(=O)CCC(=O)O)[C@@H](C)CC)C(=O)N[C@@H](CCCNC(=N)N)C(=O)N[C@@H](C)C(=O)N[C@@H](C)C(=O)N[C@@H](CCC(N)=O)C(=O)N[C@@H](CCC(=O)O)C(=O)N[C@@H](CCC(N)=O)C(=O)N[C@@H](CCC(N)=O)C(=O)N[C@@H](CCC(=O)O)C(=O)N[C@@H](CCCCN)C(=O)N[C@@H](CC(N)=O)C(=O)N[C@@H](CCC(=O)O)C(=O)N[C@@H](C)C(=O)N[C@@H](C)C(=O)N[C@@H](CC(C)C)C(=O)N[C@@H](CCCNC(=N)N)C(N)=O) [Peptide 7] | 2 | 0.6 | 764
Suc-ECYLRCIEELIRKAQEQQEKNEAALR-NH2 (cysteine pairing not given here) [Peptide 29] | 0.8 | 0.6 | 98
SUC-ACYLACIDELIKKAQEQQEKNEAALR-NH2 (Suc-ACYLACIDELIKKAQEQQEKNEAALR-NH2; cysteine pairing not given here) [Peptide 30] | 1 | 0.5 | 145
Pentanoyl-ANYAALIEALIRAAQEQQEKNEAALR-NH2 (SMILES CCCCC(=O)N[C@@H](C)C(=O)N[C@@H](CC(N)=O)C(=O)N[C@@H](Cc1ccc(O)cc1)C(=O)N[C@@H](C)C(=O)N[C@@H](C)C(=O)N[C@@H](CC(C)C)C(=O)N[C@H](C(=O)N[C@@H](CCC(=O)O)C(=O)N[C@@H](C)C(=O)N[C@@H](CC(C)C)C(=O)N[C@H](C(=O)N[C@@H](CCCNC(=N)N)C(=O)N[C@@H](C)C(=O)N[C@@H](C)C(=O)N[C@@H](CCC(N)=O)C(=O)N[C@@H](CCC(=O)O)C(=O)N[C@@H](CCC(N)=O)C(=O)N[C@@H](CCC(N)=O)C(=O)N[C@@H](CCC(=O)O)C(=O)N[C@@H](CCCCN)C(=O)N[C@@H](CC(N)=O)C(=O)N[C@@H](CCC(=O)O)C(=O)N[C@@H](C)C(=O)N[C@@H](C)C(=O)N[C@@H](CC(C)C)C(=O)N[C@@H](CCCNC(=N)N)C(N)=O)[C@@H](C)CC)[C@@H](C)CC) [Peptide 14] | 13 | 2 | >67
Ac-ECYLRCIEALIRAAQEQQEKNEAALR-NH2 [Peptide 50] | 2 | 2 | 33
Suc-ACYLACIEALIRAAQEQQEKNEAALR-NH2 (cysteine pairing not given here) [Peptide 43] | 2 | 1 | 103
SUC-CYLACIEALIRAAQEQQEKNEAALR-NH2 (Suc-CYLACIEALIRAAQEQQEKNEAALR-NH2; cysteine pairing not given here) [Peptide 26] | 1 | 1 | 311
ENYLALIEALIRAAQEQQEKNEAALL [Peptide 9] | 3 | 0.4 | 1196
Pentanoyl-ANYAALIEALIRKAQEQQEKNEAALR-NH2 (SMILES CCCCC(=O)N[C@@H](C)C(=O)N[C@@H](CC(N)=O)C(=O)N[C@@H](Cc1ccc(O)cc1)C(=O)N[C@@H](C)C(=O)N[C@@H](C)C(=O)N[C@@H](CC(C)C)C(=O)N[C@H](C(=O)N[C@@H](CCC(=O)O)C(=O)N[C@@H](C)C(=O)N[C@@H](CC(C)C)C(=O)N[C@H](C(=O)N[C@@H](CCCNC(=N)N)C(=O)N[C@@H](CCCCN)C(=O)N[C@@H](C)C(=O)N[C@@H](CCC(N)=O)C(=O)N[C@@H](CCC(=O)O)C(=O)N[C@@H](CCC(N)=O)C(=O)N[C@@H](CCC(N)=O)C(=O)N[C@@H](CCC(=O)O)C(=O)N[C@@H](CCCCN)C(=O)N[C@@H](CC(N)=O)C(=O)N[C@@H](CCC(=O)O)C(=O)N[C@@H](C)C(=O)N[C@@H](C)C(=O)N[C@@H](CC(C)C)C(=O)N[C@@H](CCCNC(=N)N)C(N)=O)[C@@H](C)CC)[C@@H](C)CC) [Peptide 16] | 8 | 0.8 | >108
ANYAALIEALIRAAQEQQEKNEAALR [Peptide 2] | 77 | 1 | >28
ANYLALIEELIRAAQEQQEKNEAALR [Peptide 10] | 4 | 0.4 | >695
Pentanoyl-ECYLRCIEELIRKAQEQQEKNEAALR-NH2 (cysteine pairing not given here) [Peptide 91] | 1 | 5 | 5
Pentanoyl-ECYLCLIEELIRKAQEQQEKNEAALR-NH2 (cysteine pairing not given here) [Peptide 92] | 1 | 5 | 3
Suc-ENYLRLIEELIRKAQEQQEKNEAALR-NH2 (SMILES CC[C@H](C)[C@H](NC(=O)[C@H](CC(C)C)NC(=O)[C@H](CCC(=O)O)NC(=O)[C@H](CCC(=O)O)NC(=O)[C@@H](NC(=O)[C@H](CC(C)C)NC(=O)[C@H](CCCNC(=N)N)NC(=O)[C@H](CC(C)C)NC(=O)[C@H](Cc1ccc(O)cc1)NC(=O)[C@H](CC(N)=O)NC(=O)[C@H](CCC(=O)O)NC(=O)CCC(=O)O)[C@@H](C)CC)C(=O)N[C@@H](CCCNC(=N)N)C(=O)N[C@@H](CCCCN)C(=O)N[C@@H](C)C(=O)N[C@@H](CCC(N)=O)C(=O)N[C@@H](CCC(=O)O)C(=O)N[C@@H](CCC(N)=O)C(=O)N[C@@H](CCC(N)=O)C(=O)N[C@@H](CCC(=O)O)C(=O)N[C@@H](CCCCN)C(=O)N[C@@H](CC(N)=O)C(=O)N[C@@H](CCC(=O)O)C(=O)N[C@@H](C)C(=O)N[C@@H](C)C(=O)N[C@@H](CC(C)C)C(=O)N[C@@H](CCCNC(=N)N)C(N)=O) [Peptide 20] | 0.7 | 1 | 80
Isovaleryl-ANYAALIEALIRAAQEQQEKNEAALR-NH2 (SMILES CC[C@H](C)[C@H](NC(=O)[C@H](CC(C)C)NC(=O)[C@H](C)NC(=O)[C@H](CCC(=O)O)NC(=O)[C@@H](NC(=O)[C@H](CC(C)C)NC(=O)[C@H](C)NC(=O)[C@H](C)NC(=O)[C@H](Cc1ccc(O)cc1)NC(=O)[C@H](CC(N)=O)NC(=O)[C@H](C)NC(=O)CC(C)C)[C@@H](C)CC)C(=O)N[C@@H](CCCNC(=N)N)C(=O)N[C@@H](C)C(=O)N[C@@H](C)C(=O)N[C@@H](CCC(N)=O)C(=O)N[C@@H](CCC(=O)O)C(=O)N[C@@H](CCC(N)=O)C(=O)N[C@@H](CCC(N)=O)C(=O)N[C@@H](CCC(=O)O)C(=O)N[C@@H](CCCCN)C(=O)N[C@@H](CC(N)=O)C(=O)N[C@@H](CCC(=O)O)C(=O)N[C@@H](C)C(=O)N[C@@H](C)C(=O)N[C@@H](CC(C)C)C(=O)N[C@@H](CCCNC(=N)N)C(N)=O) [Peptide 17] | 24 | 0.9 | >37
Ac-ECYAACIEELIRKAQEQQEKNEAALR-NH2 [Peptide 53] | 21 | 0.3 | >164
